# From patent US20210391038A1, “SPECIFICALLY-SHAPED CRYSTAL OF COMPOUND AND METHOD FOR PRODUCING SAME” (TOWA PHARMACEUTICAL CO., LTD., priority 2018, published 2021)
# Structures can show the parent of a compound that is named as a salt. Where two headings read alike, the source gives them in different places.
# Legend:
# Format in all cases: physicochemical
# [1] = Sphericity from SEM images (ImageJ); set-up: key: 1 = true sphere; closer to 1 = more spherical; mean of ≥5 particles
# Description: In the present description, “spherulite” means a crystal aggregate (polycrystal) which has a radial or concentric thin layered structure and has a spherical outer shape. Whether the crystal obtained by the method of the present invention is a spherulite or not can be determined, for example, by observing the outer shape of the crystal using SEM. For example, it can be discriminated by cutting the crystal aggregate and observing the internal structure thereof using SEM. The sphericity of the spherulite obtained by the method of the present invention is usually 0.60 or more, preferably 0.70 or more, more preferably 0.80 or more, particularly preferably 0.90 or more, and most preferably 0.95 or more. The sphericity can be calculated by the following method.
# When an image of particles taken by SEM is analyzed using image processing software ImageJ, a coordinate group representing the position of pixels forming the outline of a particle is obtained. The length of the coordinate group is defined as N, and one pixel coordinate of each outline is defined as p[i] (1≤i≤N). The angle between a straight line l(k) connecting two points p[k] and p[k+N/D] and a straight line m(k) connecting two points p[k+N/D] and p[k+2N/D] is defined as θ(k) (−180°<θ<180°) (1≤k≤N, 1≤D≤N). D corresponds to the number of partitions of the outline. When N/D is not a natural number, the value is defined as the quotient obtained by dividing N by D. By calculating this angle with k=1 to N, N pieces of θ value can be obtained.
# When the particle is a true sphere, θ(k) is 360/D, and the closer the particle is to a true sphere, the closer θ(k) is to this value. The error between θ(k) and the true value 360/D is evaluated by the root-mean-square error (RMSE) of the following formula:
# Using the RMSE value of when D is 10 (θ(k)=36°), the sphericity is defined by the following formula: […]
# The sphericity is 1 in a true sphere, and the closer the particle is to a true sphere, the closer the sphericity is to 1. Meanwhile, the sphericity of an ellipse whose long axis is infinitely long is zero. The sphericity is measured for five or more particles to calculate the mean. This mean is defined as the sphericity of each sample (see FIGS. 42 and 43).
# [2] = Particle size distribution (d50, sharpness index); set-up: key to sharpness index of the crystal thus obtained / sharpness index of the fine powders: calculated by formula from d10, d50, d90; 1.0 = most uniform particle size
# Description: d10 in the present description is a value obtained from a particle size distribution analyzer, and represents a particle size of a particle corresponding to 10% of accumulation from the smaller particle side in the particle size distribution based on the volume.
# d50 in the present description is a value obtained from a particle size distribution analyzer, and represents a particle size of a particle corresponding to 50% of accumulation from the smaller particle side in the particle size distribution based on the volume.
# “Sharpness index” in the present description is an index representing the uniformity of a particle size of a particle in a powder, and a sharpness index of 1.0 represents a powder having the most uniform particle size. The closer the sharpness index is to 1.0, the more the particle size of the powder is uniform. Specifically, the sharpness index represents a value calculated using the following formula from the values of d10, d50, and d90 measured by a particle size distribution analyzer:
# Images for measuring the number of particles were obtained by a scanner GT-X830 manufactured by SEIKO EPSON CORPORATION. The powder X-ray diffraction (XRD) was measured using a desktop X-ray diffraction device MiniFlex300 manufactured by Rigaku Corporation. […] The particle strength was measured using a particle hardness measuring device NEW GRANO manufactured by OKADA SEIKO CO., LTD. […] The purity of a compound was measured by a high performance liquid chromatograph (LC-20A) manufactured by Shimadzu Corporation.
# [3] = Measurement of critical degree of supersaturation of spherulite
# Description: “Supersaturated solution” in the present description means a solution in a state of containing a solute exceeding the solubility. As the degree of supersaturation, “degree of supersaturation” can be used. Regarding the degree of supersaturation, when the concentration (mass concentration (g/g)) of a compound dissolved in a supersaturated solution is defined as C and the solubility of the compound is defined as Cs, the degree of supersaturation S can be represented by the following formula: […]
# “Critical degree of supersaturation” in the present description means the lowest degree of supersaturation required to obtain a specifically-shaped crystal. […] The value of a critical degree of supersaturation varies depending on the shape of a crystal. For example, all of values of a critical degree of supersaturation required to obtain a plate crystal, a critical degree of supersaturation required to obtain a needle crystal, and a critical degree of supersaturation required to obtain a spherulite are different. The critical degree of supersaturation required to obtain a spherulite is higher than the critical degree of supersaturation required to obtain a plate crystal or a needle crystal.
# The actual measured value of the critical degree of supersaturation (S*) can be measured as follows:
# (1) 100 particles are observed by SEM. (2) 5 to 10 particles whose shape is close to a desired specific shape are selected, and the shape is evaluated. In particular, when the desired specific shape is a sphere, the sphericity is evaluated. (3) Based on the evaluation index of the shape, whether the selected particles have the desired specific shape or not is determined. In particular, when the desired specific shape is a sphere, the case where the sphericity is 0.60 or more is determined as a spherulite. (4) The above-mentioned operation is performed for each sample having a different degree of supersaturation during crystallization, and the minimum value of a degree of supersaturation having the specifically-shaped particles is determined as the critical degree of supersaturation. The difference between the maximum value of a degree of supersaturation not having the specifically-shaped particles and the critical degree of supersaturation should be 20% or less.
# The critical degree of supersaturation of a spherulite of ketotifen fumarate was determined as follows. To 2.0 g of ketotifen fumarate, 10 mL (5 v/w) of methanol was added, followed by reflux to completely dissolve. This solution was added dropwise to 50 mL of isopropanol at 20° C. to prepare a supersaturated solution of ketotifen fumarate. The degree of supersaturation of the supersaturated solution at the end of dropwise addition was 9.0. The supersaturated solution was crystallized. The crystal was collected by filtration, followed by drying under reduced pressure at 40° C., thus obtaining a crystal of ketotifen fumarate.
# Similarly, when a substrate and a solvent different from those mentioned above are used, a plurality of samples having a different degree of supersaturation are prepared and crystallized, and then the critical degree of supersaturation of the spherulite was measured.
# [4] = SEM image analysis, mean of particles
# [5] = dry particle size distribution, volume based
smiles,measurement,setting,value
"Cc1cccc(C)c1NC(=O)CC12CCCN1CCC2.Cl [Example 25, pilsicainide hydrochloride anhydride]",sphericity of the spherulite,[1]; [4],0.69±0.18
same,sharpness index of the crystal thus obtained,"[2]; calculated from d10, d50, d90",2.29
same,d50 of the crystal thus obtained,[2]; [5],116 μm
"COc1ccc2[n-]c([S@@+]([O-])Cc3ncc(C)c(OC)c3C)nc2c1.COc1ccc2[n-]c([S@@+]([O-])Cc3ncc(C)c(OC)c3C)nc2c1.O.O.O.[Mg+2] [Example 10(2), esomeprazole magnesium trihydrate]",sphericity of the spherulite,"[1]; SEM image analysis, mean of particles, trihydrate",0.80±0.05
same,sphericity of the non-spherulite,"[1]; non-spherulite crystals, trihydrate",0.50±0.06
same,sharpness index of the crystal thus obtained,"[2]; calculated from d10, d50, d90, trihydrate",1.48
same,d50 of the crystal thus obtained,"[2]; dry particle size distribution, volume based, trihydrate",9.6 μm
same,d50,"[2]; samples of filtration test (Table 7), trihydrate",9.6 μm
"Cc1cc(N2CCN([C@@H]3CN[C@H](C(=O)N4CCSC4)C3)CC2)n(-c2ccccc2)n1 [Example 22, teneligliptin hydrobromide hydrate]",sphericity of the spherulite,[1]; [4],0.93±0.04
same,sharpness index of the crystal thus obtained,"[2]; calculated from d10, d50, d90",3.77
same,d50 of the crystal thus obtained,[2]; [5],33.5 μm
"N#C[C@@H]1CCCN1C(=O)CNC12CC3CC(CC(O)(C3)C1)C2 [Example 20, vildagliptin]",sphericity of the spherulite,[1]; [4],0.99±0.01
"O.O.O.O.O.O.O.O.O=C([O-])[O-].O=C([O-])[O-].O=C([O-])[O-].[La+3].[La+3] [Example 17, lanthanum carbonate octahydrate]",sphericity of the spherulite,[1],0.69±0.08
same,d50 of the crystal thus obtained,[2],105 μm
same,sharpness index of the crystal thus obtained,[2],1.4
"Cc1c(OCC(F)(F)F)ccnc1C[S+]([O-])c1nc2ccccc2[nH]1 (stereo not drawn) [Example 11, lansoprazole]",sphericity of the spherulite,[1]; [4],0.94±0.04
N#C[C@@H]1CCCN1C(=O)CNC12CC3CC(CC(O)(C3)C1)C2 [Vildagliptin],actual measured value of the critical degree of supersaturation,[3],9.2
same,Critical degree of supersaturation S Experimental value,"[3]; entry 39, solvent 1 EtOH, solvent 2 TBME, solvent 2/solvent 1 ratio 10, crystallization 0 °C",9.2
same,Critical degree of supersaturation S Experimental value,"[3]; entry 40, solvent 1 EtOH, solvent 2 TBME, solvent 2/solvent 1 ratio 10, crystallization 10 °C",7
same,Critical degree of supersaturation S Experimental value,"[3]; entry 41, solvent 1 MEK, solvent 2 Toluene, solvent 2/solvent 1 ratio 10, crystallization 0 °C",8.5
same,Critical degree of supersaturation S Experimental value,"[3]; entry 42, solvent 1 IPA, solvent 2 TBME, solvent 2/solvent 1 ratio 10, crystallization 0 °C",11
same,Critical degree of supersaturation S Experimental value,"[3]; entry 43, solvent 1 IPA, solvent 2 TBME, solvent 2/solvent 1 ratio 10, crystallization 10 °C",11.6
same,Critical degree of supersaturation S Experimental value,"[3]; entry 44, solvent 1 IPA, solvent 2 TBME, solvent 2/solvent 1 ratio 10, crystallization 20 °C",11.9
CN(C)CC/C=C1/c2ccccc2COc2ccc(CC(=O)O)cc21 [Olopatadine],actual measured value of the critical degree of supersaturation,[3],9.7
same,Critical degree of supersaturation S Experimental value,"[3]; entry 58, solvent 1 MeOH, solvent 2 EtOAc, solvent 2/solvent 1 ratio 20, crystallization 15 °C",9.7
"NC(CCC(=O)O)C(=O)O (racemic) [Example 14, DL-glutamic acid]",sphericity of the spherulite,[1]; [4],0.95±0.03
CN(C)CCC[C@@]1(c2ccc(F)cc2)OCc2cc(C#N)ccc21 [Escitalopram oxalate],actual measured value of the critical degree of supersaturation,[3],3.7
same,Critical degree of supersaturation S Experimental value,"[3]; entry 21, solvent 1 H2O, solvent 2 2-BuOH, solvent 2/solvent 1 ratio 30, crystallization 0 °C",2.8
same,Critical degree of supersaturation S Experimental value,"[3]; entry 22, solvent 1 H2O, solvent 2 2-BuOH, solvent 2/solvent 1 ratio 15, crystallization 0 °C",3.7
same,Critical degree of supersaturation S Experimental value,"[3]; entry 23, solvent 1 H2O, solvent 2 IPA, solvent 2/solvent 1 ratio 15, crystallization 0 °C",4
CC(C)[C@H](N)C(=O)OCCOCn1cnc2c(=O)[nH]c(N)nc21 [Valacyclovir hydrochloride],Critical degree of supersaturation S Experimental value,"[3]; entry 56, solvent 1 H2O, solvent 2 2-BuOH, solvent 2/solvent 1 ratio 35, crystallization 10 °C",48.6
"CN1CCC(=C2c3ccccc3CC(=O)c3sccc32)CC1 [Example 1, ketotifen fumarate]",sphericity of the spherulite,[1]; [4],0.78±0.02
Nc1nc(CC(=O)Nc2ccc(CCNC[C@H](O)c3ccccc3)cc2)cs1 [Mirabegron],actual measured value of the critical degree of supersaturation,[3],5.6
same,Critical degree of supersaturation S Experimental value,"[3]; entry 48, solvent 1 H2O, solvent 2 MeOH, solvent 2/solvent 1 ratio 1.25, crystallization 0 °C",1.6
same,Critical degree of supersaturation S Experimental value,"[3]; entry 49, solvent 1 H2O, solvent 2 MeOH, solvent 2/solvent 1 ratio 1.25, crystallization 10 °C",3.2
same,Critical degree of supersaturation S Experimental value,"[3]; entry 50, solvent 1 MeOH, solvent 2 TBME, solvent 2/solvent 1 ratio 10, crystallization 0 °C",4
same,Critical degree of supersaturation S Experimental value,"[3]; entry 51, solvent 1 MeOH, solvent 2 TBME, solvent 2/solvent 1 ratio 10, crystallization 10 °C",4.3
same,Critical degree of supersaturation S Experimental value,"[3]; entry 52, solvent 1 EtOH, solvent 2 TBME, solvent 2/solvent 1 ratio 10, crystallization 0 °C",5.6
same,Critical degree of supersaturation S Experimental value,"[3]; entry 53, solvent 1 EtOH, solvent 2 TBME, solvent 2/solvent 1 ratio 10, crystallization 10 °C",5.4
CCCCCCOC(=O)N=C(N)c1ccc(NCc2nc3cc(C(=O)N(CCC(=O)OCC)c4ccccn4)ccc3n2C)cc1 [Dabigatran etexilate methanesulfonate],actual measured value of the critical degree of supersaturation,[3],4.3
same,Critical degree of supersaturation S Experimental value,"[3]; entry 24, solvent 1 MeOH, solvent 2 TBME, solvent 2/solvent 1 ratio 10, crystallization 20 °C",3.3
same,Critical degree of supersaturation S Experimental value,"[3]; entry 25, solvent 1 EtOH, solvent 2 EtOAc, solvent 2/solvent 1 ratio 10, crystallization 5 °C",2.9
same,Critical degree of supersaturation S Experimental value,"[3]; entry 26, solvent 1 EtOH, solvent 2 EtOAe, solvent 2/solvent 1 ratio 10, crystallization 20 °C",4.3
same,Critical degree of supersaturation S Experimental value,"[3]; entry 27, solvent 1 EtOH, solvent 2 EtOAc, solvent 2/solvent 1 ratio 10, crystallization 35 °C",5.2
COC(=O)[C@H](c1ccccc1Cl)N1CCc2sccc2C1 [Clopidogrel sulfate],Critical degree of supersaturation S Experimental value,"[3]; entry 3, solvent 1 H2O, solvent 2 2-BuOH, solvent 2/solvent 1 ratio 222, crystallization 20 °C",9.7
